Source: patent US11673910B2, “Macrolides with modified desosamine sugars and uses thereof” (Zikani Therapeutics, Inc., priority 2017, dated 2023)
Converted amounts (≈) assume the structure as drawn.

Columns and labels:
Type in all cases: cell-based
E. coli strain MP-4 = test: Broth dilution MIC determination (CLSI) against E. coli strain MP-4; details: Escherichia coli, MP4
Summary of the method: (§1)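 Macrolides were serially diluted in broth according to CLSI standards and the minimum inhibitory concentration was read per organism; each MIC was then assigned to one of three bands (+++ ≤4, ++ ≥8 to <32, + ≥32 mg/L).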

[1] = tested on: K. pneumoniae strain MP-548; test: Broth dilution MIC determination (CLSI) against K. pneumoniae strain MP-548; details: Klebsiella pneumoniae, MP548
Summary of the method: as §1

[2] = tested on: P. aeruginosa strain MP-3; test: Broth dilution MIC determination (CLSI) against P. aeruginosa strain MP-3; details: Pseudomonas aeruginosa, MP3
Summary of the method: as §1

[3] = tested on: A. baumannii strain MP-15; test: Broth dilution MIC determination (CLSI) against A. baumannii strain MP-15; details: Acinetobacter baumannii, MP15
Summary of the method: as §1

S. aureus strain MP-12 = test: Broth dilution MIC determination (CLSI) against S. aureus strain MP-12; details: Staphylococcus aureus, MP12, strain MP-12
Summary of the method: as §1

SMILES	MIC (E. coli strain MP-4) [µg/mL]	MIC [1] [µg/mL]	MIC [2] [µg/mL]	MIC [3] [µg/mL]	MIC (S. aureus strain MP-12) [µg/mL]
CC[C@H]1OC(=O)C(C)C(=O)[C@H](C)[C@@H](OC2OC(CN3CCOCC3)CC(N(C)C)C2O)[C@](C)(OC)C[C@@H](C)CN[C@H](C)[C@H]2NC(=O)O[C@@]21C (stereo partly drawn) [Compound 132, 3-Descladinosyl-3-oxo-6-O-methyl-N9a-desmethyl-11,12-dideoxy-12,11-(oxycarbonylimino)-6′-(1-morpholino) Azithromycin]	≤ 4	8 to 32 (≈ 11.4 to 45.8 µM)	≥ 32	≥ 32	8 to 32 (≈ 11.4 to 45.8 µM)
CC[C@H]1OC(=O)[C@@](C)(F)C(=O)[C@H](C)[C@@H](O[C@@H]2OC(CNCc3cccc(-c4cncnc4)c3)CC(N(C)C)C2O)[C@](C)(OC)C[C@@H](C)C(=O)[C@H](C)[C@H]2NC(=O)O[C@@]21C (stereo partly drawn) [Compound 93]	≥ 32	≥ 32	≥ 32	≥ 32	≤ 4
CC[C@H]1OC(=O)[C@@]2(C)CCO[C@](C)(C[C@@H](C)CN[C@H](C)[C@H]3NC(=O)O[C@@]31C)[C@H](O[C@@H]1O[C@H](CNCc3cccnc3)C[C@H](N(C)C)[C@H]1O)[C@@H](C)C2=O [Compound 201]	≥ 32	≥ 32	≥ 32	≥ 32	≥ 32
CC[C@H]1OC(=O)C(C)C(=O)[C@H](C)[C@@H](O[C@@H]2O[C@H](CNC3CC3)CC(N(C)C)[C@H]2O)[C@](C)(OC)C[C@@H](C)CN(C)[C@H](C)[C@H]2N(C)C(=O)O[C@]12C (stereo partly drawn) [Compound 191]	≤ 4	8 to 32 (≈ 11.5 to 45.9 µM)	≥ 32	≥ 32	≥ 32
CC[C@H]1OC(=O)C(C)C(=O)[C@H](C)[C@@H](OC2OC(CN(C)CC)CC(N(C)C)C2O)[C@](C)(OC)C[C@@H](C)CN(C)[C@H](C)[C@H]2NC(=O)O[C@@]21C (stereo partly drawn) [Compound 158, 3-Descladinosyl-3-oxo-6-O-methyl-11,12-dideoxy-12,11-(oxycarbonylimino)-6′-ethylmethylamino Azithromycin]	≤ 4	8 to 32 (≈ 11.7 to 46.7 µM)	≥ 32	≥ 32	≥ 32
CC[C@H]1OC(=O)[C@]2(C)CCC(=O)CO[C@](C)(C[C@@H](C)CN[C@H](C)[C@H]3NC(=O)O[C@@]31C)[C@H](OC1OC(C)CC(N(C)C)C1O)[C@@H](C)C2=O (stereo partly drawn) [Compound 226]	≥ 32	≥ 32	≥ 32	≥ 32	≥ 32
CC[C@H]1OC(=O)[C@]2(C)CCO[C@](C)(C[C@@H](C)CN[C@H](C)[C@H]3NC(=O)O[C@@]31C)[C@H](O[C@@H]1O[C@H](CNCc3cccnc3)C[C@H](N(C)C)[C@H]1O)[C@@H](C)C2=O [Compound 200]	8 to 32 (≈ 10.9 to 43.7 µM)	≥ 32	≥ 32	≥ 32	8 to 32 (≈ 10.9 to 43.7 µM)
CC[C@H]1OC(=O)C(C)C(=O)[C@H](C)[C@@H](O[C@@H]2OC(CNc3ccc(C#N)cc3)CC(N(C)C)C2O)[C@](C)(OC)C[C@@H](C)CN[C@H](C)[C@H]2NC(=O)O[C@@]21C (stereo partly drawn) [Compound 50]	8 to 32 (≈ 11 to 43.8 µM)	≥ 32	≥ 32	≥ 32	≥ 32
CC[C@H]1OC(=O)C(C)C(=O)[C@H](C)[C@@H](OC2OC(C(=O)N(C)C3CC3)CC(N(C)C)C2O)[C@](C)(OC)C[C@@H](C)CN[C@H](C)[C@H]2NC(=O)O[C@@]21C (stereo partly drawn) [Compound 168, 3-Descladinosyl-3-oxo-6-O-methyl-N9a-desmethyl-11,12-dideoxy-12,11-(oxycarbonylimino)-5′-desmethyl-5′-(N,N-cyclopropyl(methyl)carboxamido) Azithromycin]	≥ 32	≥ 32	≥ 32	≥ 32	≥ 32
CC[C@H]1OC(=O)C(C)C(=O)[C@H](C)[C@@H](OC2OC(CN3CCC(F)(F)CC3)CC(N(C)C)C2O)[C@](C)(OC)C[C@@H](C)CN[C@H](C)[C@H]2NC(=O)O[C@@]21C (stereo partly drawn) [Compound 144, 3-Descladinosyl-3-oxo-6-O-methyl-N9a-desmethyl-11,12-dideoxy-12,11-(oxycarbonylimino)-6′-(4″,4″-difluoropiperidin-1″-yl) Azithromycin]	≤ 4	8 to 32 (≈ 10.9 to 43.7 µM)	≥ 32	8 to 32 (≈ 10.9 to 43.7 µM)	8 to 32 (≈ 10.9 to 43.7 µM)
CC[C@H]1OC(=O)[C@@](C)(F)C(=O)[C@H](C)[C@@H](O[C@@H]2OC(CNCc3ccc(-c4cncnc4)cc3)CC(N(C)C)C2O)[C@](C)(OC)C[C@@H](C)C(=O)[C@H](C)[C@H]2NC(=O)O[C@@]21C (stereo partly drawn) [Compound 92]	≥ 32	≥ 32	≥ 32	≥ 32	≤ 4

Now from value to compound:

MIC (E. coli strain MP-4) [µg/mL]	MIC [1] [µg/mL]	MIC [2] [µg/mL]	MIC [3] [µg/mL]	MIC (S. aureus strain MP-12) [µg/mL]	SMILES
8 to 32 (≈ 11.9 to 47.8 µM)	≥ 32	≥ 32	8 to 32 (≈ 11.9 to 47.8 µM)	8 to 32 (≈ 11.9 to 47.8 µM)	CC[C@H]1OC(=O)C(C)C(=O)[C@H](C)[C@@H](O[C@@H]2O[C@H](CCC(C)C)CC(N(C)C)[C@H]2O)[C@](C)(OC)C[C@@H](C)CN[C@H](C)[C@H]2NC(=O)O[C@@]21C (stereo partly drawn) [Compound 183, 3-Descladinosyl-3-oxo-6-O-methyl-N9a-desmethyl-11,12-dideoxy-12,11-(oxycarbonylimino)-6′-isobutyl Azithromycin]
≤ 4	8 to 32 (≈ 11.5 to 45.9 µM)	≥ 32	≥ 32	≥ 32	CC[C@H]1OC(=O)C(C)C(=O)[C@H](C)[C@@H](OC2OC(CN3CCCCC3)CC(N(C)C)C2O)[C@](C)(OC)C[C@@H](C)CN[C@H](C)[C@H]2NC(=O)O[C@@]21C (stereo partly drawn) [Compound 123, 3-Desdadinosyl-3-oxo-6-O-methyl-N9a-desmethyl-11,12-dideoxy-12,11-(oxycarbonylimino)-6′-(1-piperidinyl) Azithromycin]
≤ 4	8 to 32 (≈ 11.7 to 46.7 µM)	≥ 32	≥ 32	≥ 32	CC[C@H]1OC(=O)C(C)C(=O)[C@H](C)[C@@H](OC2OC(CN(C)C(C)C)CC(N(C)C)C2O)[C@](C)(OC)C[C@@H](C)CN[C@H](C)[C@H]2NC(=O)O[C@@]21C (stereo partly drawn) [Compound 154, 3-Desdadinosyl-3-oxo-6-O-methyl-N9a-desmethyl-11,12-dideoxy-12,11-(oxycarbonylimino)-6′-isopropylmethylamino Azithromycin]
8 to 32 (≈ 12 to 47.9 µM)	≥ 32	≥ 32	8 to 32 (≈ 12 to 47.9 µM)	8 to 32 (≈ 12 to 47.9 µM)	CC[C@H]1OC(=O)C(C)C(=O)[C@H](C)[C@@H](O[C@@H]2O[C@H](CCC3CC3)CC(N(C)C)[C@H]2O)[C@](C)(OC)C[C@@H](C)CN[C@H](C)[C@H]2NC(=O)O[C@@]21C (stereo partly drawn) [Compound 185, 3-Descladinosyl-3-oxo-6-O-methyl-N9a-desmethyl-11,12-dideoxy-12,11-(oxycarbonylimino)-6′-cyclopropylmethyl Azithromycin]
≤ 4	8 to 32 (≈ 11.6 to 46.6 µM)	≥ 32	≥ 32	≥ 32	CC[C@H]1OC(=O)C(C)C(=O)[C@H](C)[C@@H](OC2OC(CNCCOC)CC(N(C)C)C2O)[C@](C)(OC)C[C@@H](C)CN[C@H](C)[C@H]2NC(=O)O[C@@]21C (stereo partly drawn) [Compound 114, 3-Descladinosyl-3-oxo-6-O-methyl-N9a-desmethyl-11,12-dideoxy-12,11-(oxycarbonylimino)-6′-(2-methoxyamino) Azithromycin]
≤ 4	≥ 32	≥ 32	≥ 32	≥ 32	CC[C@H]1OC(=O)C(C)C(=O)[C@H](C)[C@@H](OC2OC(CNCC(N)=O)CC(N(C)C)C2O)[C@](C)(OC)C[C@@H](C)CN[C@H](C)[C@H]2NC(=O)O[C@@]21C (stereo partly drawn) [Compound 116, 3-Descladinosyl-3-oxo-6-O-methyl-N9a-desmethyl-11,12-dideoxy-12,11-(oxycarbonylimino)-6′-(N-acetamidylamino) Azithromycin]
≥ 32	≥ 32	≥ 32	≥ 32	≥ 32	CC[C@H]1OC(=O)C(C)C(=O)[C@H](C)[C@@H](OC2OC(CNCCS(C)(=O)=O)CC(N(C)C)C2O)[C@](C)(OC)C[C@@H](C)CN[C@H](C)[C@H]2NC(=O)O[C@@]21C (stereo partly drawn) [Compound 140, 3-Descladinosyl-3-oxo-6-O-methyl-N9a-desmethyl-11,12-dideoxy-12,11-(oxycarbonylimino)-6′-2″-(methylsulfonyl)ethan-1″-amino Azithromycin]
≤ 4	8 to 32 (≈ 11.9 to 47.7 µM)	≥ 32	≥ 32	≥ 32	CC[C@H]1OC(=O)C(C)C(=O)[C@H](C)[C@@H](OC2OC(CN(C)CC)CC(N(C)C)C2O)[C@](C)(OC)C[C@@H](C)CN[C@H](C)[C@H]2NC(=O)O[C@@]21C (stereo partly drawn) [Compound 151, 3-Descladinosyl-3-oxo-6-O-methyl-N9a-desmethyl-11,12-dideoxy-12,11-(oxycarbonylimino)-6′-methylethylamino Azithromycin]
≥ 32	≥ 32	≥ 32	≥ 32	≥ 32	CC[C@H]1OC(=O)C(C)C(=O)[C@H](C)[C@@H](O[C@@H]2O[C@H](CN)CC(N(C)C)[C@H]2O)[C@](C)(OC)C[C@@H](C)CN[C@H](C)[C@H]2NC(=O)O[C@@]21C (stereo partly drawn) [Compound 174, 3-Descladinosyl-3-oxo-6-O-methyl-N9a-desmethyl-11,12-dideoxy-12,11-(oxycarbonylimino)-11-methyl-6′-amino Azithromycin]
≤ 4	≥ 32	≥ 32	≥ 32	≥ 32	CC[C@H]1OC(=O)C(C)C(=O)[C@H](C)[C@@H](O[C@@H]2OC(CNCc3cccc(F)c3)CC(N(C)C)C2O)[C@](C)(OC)C[C@@H](C)CN[C@H](C)[C@H]2NC(=O)O[C@@]21C (stereo partly drawn) [Compound 30]
